According to patent US20170008928A1, “NOVEL PEPTIDES AND PEPTIDE DERIVATIVES AND USES THEREOF” (Novo Nordisk A/S, priority 2015, published 2017):
Where two headings read alike, the source gives them in different places. Non-standard residues stand in square brackets, D forms with d. Residues, ends and D or L forms follow the SMILES beside them. Phe(4-CH2SO3H) = N[C@@H](Cc1ccc(CS(=O)(=O)O)cc1)C(=O)O; sY = N[C@@H](Cc1ccc(OS(=O)(=O)O)cc1)C(=O)O; NMeF = CN[C@@H](Cc1ccccc1)C(=O)O; dNMeD = CN[C@H](CC(=O)O)C(=O)O; Nle = CCCC[C@H](N)C(=O)O

Tests used:
[1] = target: T1, human cholecystokinin-2 receptor (CCK-2R) (Homo sapiens, UniProt P32239); test: In vitro potency on CCK-2R, whole cell functional assay (IP1 accumulation, IP-One HTRF); type: cell-based
T1 construct: host or cells: 1321-N1 cells (plasma membranes prepared by Evotec AG Hamburg)
T1 sequence (P32239 1-447): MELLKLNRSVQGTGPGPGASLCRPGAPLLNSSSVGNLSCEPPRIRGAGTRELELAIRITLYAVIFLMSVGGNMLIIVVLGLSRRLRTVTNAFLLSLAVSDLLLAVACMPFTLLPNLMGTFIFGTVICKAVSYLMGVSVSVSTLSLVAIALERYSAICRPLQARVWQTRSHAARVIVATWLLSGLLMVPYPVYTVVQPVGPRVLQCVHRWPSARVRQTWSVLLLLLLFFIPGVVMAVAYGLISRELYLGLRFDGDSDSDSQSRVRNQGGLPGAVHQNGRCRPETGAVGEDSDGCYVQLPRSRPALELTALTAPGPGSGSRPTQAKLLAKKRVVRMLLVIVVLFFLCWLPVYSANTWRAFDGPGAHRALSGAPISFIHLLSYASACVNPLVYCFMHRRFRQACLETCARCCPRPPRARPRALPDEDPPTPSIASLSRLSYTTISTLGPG

[2] = target: T1, human cholecystokinin-2 receptor (CCK-2R); test: In vitro receptor binding to CCK-2R, SPA displacement of [125I]-CCK-8s from plasma membranes
Description: The in vitro binding affinity is a measure of the strength of attraction between a receptor and its ligand.
Displacement of radio ligand was measured as reduction in light emission from SPA beads.
The cells used in these assays were 1321-N1 cells stably expressing the CCK-1R or the CCK-2R (Perkin Elmer product numbers ES-530-A and ES-531-A, respectively see www.perkinelmer.com/Catalog/Product/ID/ES-530-A or -ES-531-A, respectively).
The cells were cultured in an incubator (95% RH (relative humidity), 5% (of standard atmospheric pressure) CO2, 37° C.) in cell culture medium (DMEM (Lonza catalogue BE-12-604F/U1), with 10% (v/v) Foetal Calf Serum (FCS, Gibco catalogue 16140-071), 1% (w/w) Sodium pyruvate (Gibco catalogue 11360-039), 500 μg/ml Geneticin® (G418) (Gibco catalogue 10131-027), 25 μg/ml Zeocin™ (Invitrogen catalogue R250-05), 1% (w/w) Pen/Strep (Gibco catalogue 15140-122)).
Plasma membranes were prepared by Evotec AG Hamburg by use of the ParrBomb (#4635, Parr Instrument Company). Cells were lysed with a lysis buffer (50 mM Tris, 2.5 mM EDTA, pH7) with added protease inhibitors (Complete Proteaseinhibitors EDTA-free (#05056489001, Roche), 1 tablet per 50 mL lysis buffer). The membrane fraction was separated by centrifugation. First, the cell lysate was centrifuged at 1000×g for 10 minutes at 4° C. The pellet was discarded and the supernatant was then centrifuged at 100.000×g for 30 minutes at 4° C. The supernatant was discarded and the pellet was re-suspended in 1 ml/5×10^8 cells ice cold membrane buffer (50 mM Tris, 320 mM Sucrose and Complete Proteaseinhibitors EDTA-free (#05056489001, Roche); pH7.4) and homogenised with dounce homogeniser. The protein concentration was determined using the Pierce™ BCA Protein Assay Kit according to kit manual, and the membrane preparation was adjust to the desired protein concentration with membrane buffer and aliquoted into pre-cooled tubes, snap-frozen in liquid nitrogen, and stored at −80° C.
CCK receptor binding assays were performed in 96-well Optiplates (Cat #6005290, PerkinElmer, Waltham, Mass., USA) in a total volume of 200 μl per well. CCK derivatives in 80% DMSO stock solutions of 800 μM were serially diluted […] in assay buffer (50 mM Tris/HCl, 4.5 mM MgCl2, […], 0.02% Tween 20, 0.25% ovalbumin, 0.1% pluronic F-68, pH 7.4) to final assay concentrations ranging from 10^−5 M (ten μM) to 10^−12 M (one pM).
Fifty μl of reference or test compounds were added to the Optiplates (using technical duplicates, i.e. two wells of each sample, one data point being the average of two wells), followed by addition of 150 μl of the mixture of SPA bead, radio ligand, and plasma membrane. The plates were sealed and incubated in the dark at +22° C. for 2 hours on a IKA MTS plate shaker (IKA-Werke D-79219 Staufen) set at 300 rpm and thereafter centrifuged at 1500 rpm for 10 minutes in a Heraeus Multifuge 3s centrifuge. SPA bead light emission was measured in a TopCount NXT (PerkinElmer) for 2 min/well after a delay of 60 min.
As a measure of compound affinity, calculations were performed in order to determine the half maximal inhibitory concentration (the IC50 value).
The data from the TopCounter were given as counts per minute (CPM). The CPM was plotted as a function of the concentration of compound. Dose-response curves were obtained, and IC50 values were calculated, by a nonlinear three-parameter logistic equation (log(agonist) vs response) with hillslope=−1, and shared top and bottom using the software programme GraphPad Prism v 6.0 (Graph Pad software, La Jolla, Calif., USA). The highest dose tested was 10^−5 M (1×10^7 pM).
The preference of a specific compound for the CCK-1 receptor, or the CCK-1R selectivity, may be defined as IC50 (CCK-2R)/IC50 (CCK-1R).
A minimum of three biological replicates was measured for each test compound on separate assay plates.

[3] = 1321-N1 cells stably expressing CCK-2R, IP1 accumulation, highest dose tested 1×10^6 pM, read-out: EC50 (CCK-2R)
[4] = displacement of [125I]-CCK-8s, plasma membranes of 1321-N1 cells expressing CCK-2R, highest dose tested 1×10^7 pM, read-out: IC50 (CCK-2R)

SMILES	EC50 [1, 3] [µM]	IC50 [2, 4] [µM]	EC50 [1] [µM]	IC50 [2] [µM]
CC(C)C[C@H](NC(=O)[C@H](Cc1ccc(OS(=O)(=O)O)cc1)NC(=O)[C@H](CCC(=O)O)NC(=O)COCCOCCNC(=O)COCCOCCNC(=O)CC[C@H](NC(=O)CCCCCCCCCCCCCCCCC(=O)O)C(=O)O)C(=O)NCC(=O)N[C@@H](Cc1c[nH]c2ccccc12)C(=O)N[C@@H](CCC(N)=O)C(=O)N(C)[C@H](CC(=O)O)C(=O)N[C@@H](Cc1ccccc1)C(N)=O [Example 41, 2-[2-[2-[[2-[2-[2-[[(4S)-4-Carboxy-4-(17-carboxyheptadecanoylamino)butanoyl]amino]ethoxy]ethoxy]acetyl]amino]ethoxy]ethoxy]acetyl-Glu-sTyr-Leu-Gly-Trp-Gln-DMeAsp-Phe-amide]	> 1	> 10		
CCCC[C@H](NC(=O)[C@H](Cc1c[nH]c2ccccc12)NC(=O)CNC(=O)[C@H](CC(C)C)NC(=O)[C@H](Cc1ccc(CS(=O)(=O)O)cc1)NC(=O)[C@@H](N)CC(=O)O)C(=O)N(C)[C@H](CC(=O)O)C(=O)N(C)[C@@H](Cc1ccccc1)C(N)=O [Example 57, Asp-Phe(4-sulfomethyl)-Leu-Gly-Trp-Nle-DMeAsp-MePhe-amide] (H-D[Phe(4-CH2SO3H)]LGW[Nle][dNMeD][NMeF]-NH2)	> 1	> 10		
CC[C@H](C)[C@H](NC(=O)[C@H](Cc1c[nH]c2ccccc12)NC(=O)CNC(=O)[C@H](CC(C)C)NC(=O)[C@H](Cc1ccc(OS(=O)(=O)O)cc1)NC(=O)[C@@H](N)CC(=O)O)C(=O)N(C)[C@H](CC(=O)O)C(=O)N(C)[C@@H](Cc1ccccc1)C(N)=O [Example 61, Asp-sTyr-Leu-Gly-Trp-Ile-DMeAsp-MePhe-amide] (H-D[sY]LGWI[dNMeD][NMeF]-NH2)			> 1	6.1
CC(C)C[C@H](NC(=O)[C@H](Cc1ccc(OS(=O)(=O)O)cc1)NC(=O)[C@@H](N)CC(=O)O)C(=O)NCC(=O)N[C@@H](Cc1c[nH]c2ccccc12)C(=O)N1CCC[C@H]1C(=O)N(C)[C@H](CC(=O)O)C(=O)N(C)[C@@H](Cc1ccccc1)C(N)=O [Example 66, Asp-sTyr-Leu-Gly-Trp-Pro-DMeAsp-MePhe-amide] (H-D[sY]LGWP[dNMeD][NMeF]-NH2)			> 1	> 10
CCCC[C@H](NC(=O)[C@H](Cc1c[nH]c2ccccc12)NC(=O)CNC(=O)[C@H](CCCCN)NC(=O)[C@H](Cc1ccc(OS(=O)(=O)O)cc1)NC(=O)[C@@H](N)CC(=O)O)C(=O)N(C)[C@H](CC(=O)O)C(=O)N(C)[C@@H](Cc1ccccc1)C(N)=O [Example 67, Asp-sTyr-Lys-Gly-Trp-Nle-DMeAsp-MePhe-amide] (H-D[sY]KGW[Nle][dNMeD][NMeF]-NH2)	> 1	> 10		
CCCC[C@H](NC(=O)[C@@H](N)Cc1ccc(OS(=O)(=O)O)cc1)C(=O)NCC(=O)N[C@@H](Cc1c[nH]c2ccccc12)C(=O)N[C@@H](CCCC)C(=O)N(C)[C@H](CC(=O)O)C(=O)N(C)[C@@H](Cc1ccccc1)C(N)=O [Example 72, sTyr-Nle-Gly-Trp-Nle-DMeAsp-MePhe-amide] (H-[sY][Nle]GW[Nle][dNMeD][NMeF]-NH2; N-terminus assumed)	> 1	> 10		

Now from value to compound, other results behind:

EC50 [1, 3] [µM]	IC50 [2, 4] [µM]	SMILES	EC50 [1] [µM]	IC50 [2] [µM]
> 1	> 10	CCCC[C@H](NC(=O)[C@H](Cc1c[nH]c2ccccc12)NC(=O)CNC(=O)[C@@H](NC(=O)[C@H](Cc1ccc(OS(=O)(=O)O)cc1)NC(=O)[C@@H](N)CC(=O)O)[C@@H](C)CC)C(=O)N(C)[C@H](CC(=O)O)C(=O)N(C)[C@@H](Cc1ccccc1)C(N)=O [Example 81, Asp-sTyr-Ile-Gly-Trp-Nle-DMeAsp-MePhe-amide] (H-D[sY]IGW[Nle][dNMeD][NMeF]-NH2)		
> 1	> 10	CCCC[C@H](NC(=O)[C@H](Cc1c[nH]c2ccccc12)NC(=O)CNC(=O)[C@H](Cc1c[nH]cn1)NC(=O)[C@H](Cc1ccc(OS(=O)(=O)O)cc1)NC(=O)[C@@H](N)CC(=O)O)C(=O)N(C)[C@H](CC(=O)O)C(=O)N(C)[C@@H](Cc1ccccc1)C(N)=O [Example 82, Asp-sTyr-His-Gly-Trp-Nle-DMeAsp-MePhe-amide] (H-D[sY]HGW[Nle][dNMeD][NMeF]-NH2)		
> 1	> 10	CC(C)C[C@H](NC(=O)[C@H](Cc1ccc(OS(=O)(=O)O)cc1)NC(=O)[C@@H](N)CCC(=O)O)C(=O)NCC(=O)N[C@@H](Cc1c[nH]c2ccccc12)C(=O)N[C@@H](CCC(N)=O)C(=O)N(C)[C@H](CC(=O)O)C(=O)N[C@@H](Cc1ccccc1)C(N)=O [Example 85, Glu-sTyr-Leu-Gly-Trp-Gln-DMeAsp-Phe-amide]		
> 1	> 10	CC(C)C[C@H](NC(=O)[C@H](Cc1ccc(OS(=O)(=O)O)cc1)NC(=O)[C@@H](N)CCC(=O)O)C(=O)NCC(=O)N[C@@H](Cc1c[nH]c2ccccc12)C(=O)N[C@@H](CCC(N)=O)C(=O)N(C)[C@H](CC(=O)O)C(=O)N(C)[C@@H](Cc1ccccc1)C(N)=O [Example 86, Glu-sTyr-Leu-Gly-Trp-Gln-DMeAsp-MePhe-amide]		
> 1	> 10	CCCC[C@H](NC(=O)[C@H](Cc1c[nH]c2ccccc12)NC(=O)CNC(=O)[C@H](CC(C)C)NC(=O)[C@H](Cc1ccc(OS(=O)(=O)O)cc1)NC(=O)[C@H](N)CCC(=O)O)C(=O)N(C)[C@H](CC(=O)O)C(=O)N(C)[C@@H](Cc1ccccc1)C(N)=O [Example 87, DGlu-sTyr-Leu-Gly-Trp-Nle-DMeAsp-MePhe-amide] (H-[dE][sY]LGW[Nle][dNMeD][NMeF]-NH2)		
